In brackets after ≈: the same amount, converted by molar mass. Like-named read-outs stand apart in the source and are kept apart here.
Assays:
[1] = tested on: Cryptosporidium parvum (CP); assay: Cell culture model of Cryptosporidium parvum infection in HCT-8 cells, real-time qRT-PCR; format: cell-based; settings: Cryptosporidium parvum
In short: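 HCT-8 monolayers were infected with C. parvum Iowa oocysts (1.5×10^4/well) for 3 h, then compounds were added after medium exchange and cells were incubated 41 h more (44 h total, 37 °C). Parasite Cp18S rRNA was measured by one-step SYBR qRT-PCR of lysates, normalized to host Hs18S, and % inhibition at the stated µM was derived from a standard curve.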

S. cerevisiae = assay: in vitro; settings: Saccharomyces cerevisiae
human fibroblast = assay: in vitro; settings: human
[2] = MCLint in vitro intrinsic clearance, mouse (MLM); format: in vitro ADME
[3] = HCLint in vitro intrinsic clearance, human (HLM); format: in vitro ADME
Kinetic solubility = format: physicochemical
Plasma protein binding = format: in vitro ADME; settings: mouse, mice, read-out: PPB (converted)
[4] = target: Human ether-a-go-go-related gene (hERG) (Homo sapiens, UniProt Q12809); assay: hERG test (potential cardiotoxicity); format: biochemical; settings: read-out: hERG (Abbvie)
Chain of Human ether-a-go-go-related gene (hERG) (Q12809 whole entry): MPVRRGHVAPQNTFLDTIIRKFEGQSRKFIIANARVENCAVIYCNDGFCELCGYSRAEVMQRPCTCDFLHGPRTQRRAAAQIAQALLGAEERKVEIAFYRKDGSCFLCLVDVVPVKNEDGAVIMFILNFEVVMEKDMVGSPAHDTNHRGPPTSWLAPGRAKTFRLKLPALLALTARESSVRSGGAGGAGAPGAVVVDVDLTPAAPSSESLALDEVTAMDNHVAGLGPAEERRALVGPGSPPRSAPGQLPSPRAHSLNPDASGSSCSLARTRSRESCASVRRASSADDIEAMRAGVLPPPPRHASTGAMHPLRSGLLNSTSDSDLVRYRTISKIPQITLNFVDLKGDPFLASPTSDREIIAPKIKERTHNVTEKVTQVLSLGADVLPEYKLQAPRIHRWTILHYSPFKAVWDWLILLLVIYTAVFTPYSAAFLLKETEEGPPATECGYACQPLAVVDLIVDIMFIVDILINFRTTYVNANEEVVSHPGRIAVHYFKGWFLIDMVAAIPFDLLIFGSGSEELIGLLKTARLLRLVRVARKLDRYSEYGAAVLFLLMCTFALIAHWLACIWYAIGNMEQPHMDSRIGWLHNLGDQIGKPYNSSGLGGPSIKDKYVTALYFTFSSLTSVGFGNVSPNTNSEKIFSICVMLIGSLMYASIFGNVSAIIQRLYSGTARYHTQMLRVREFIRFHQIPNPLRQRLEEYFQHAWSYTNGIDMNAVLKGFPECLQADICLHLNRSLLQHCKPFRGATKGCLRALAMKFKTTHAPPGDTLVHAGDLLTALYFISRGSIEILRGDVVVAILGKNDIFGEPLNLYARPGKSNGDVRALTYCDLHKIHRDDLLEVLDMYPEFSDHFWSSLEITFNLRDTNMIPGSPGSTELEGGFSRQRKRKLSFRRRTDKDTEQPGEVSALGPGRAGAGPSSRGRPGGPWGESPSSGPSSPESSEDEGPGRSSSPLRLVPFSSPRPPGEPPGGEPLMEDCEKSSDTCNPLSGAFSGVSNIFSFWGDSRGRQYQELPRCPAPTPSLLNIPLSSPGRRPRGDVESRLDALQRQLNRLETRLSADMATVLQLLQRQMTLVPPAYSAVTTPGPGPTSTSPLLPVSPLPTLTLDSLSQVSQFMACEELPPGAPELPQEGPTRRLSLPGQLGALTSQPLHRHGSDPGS

Cryptosporidium parvum = settings: for Mouse Model (Mead) DPI7: @50 mg/kg, day 7 post infection
Protocol: The anticryptosporidial activity of the in vitro inhibitors was assessed in the IL-12 knockout mouse model that resembles the acute human disease (Ehigiator H N, Romagnoli P, Borgelt K, Fernandez M, McNair N, Secor W E, Mead J R. 2005. Mucosal cytokine and antigen-specific responses to Cryptosporidium parvum in IL-12p40 KO mice. Parasite Immunol. 27: 17-28; Campbell L D, Stewart J N, Mead J R. 2002. Susceptibility to Cryptosporidium parvum infections in cytokine- and chemokine-receptor knockout mice. J. Parasitol. 88:1014-1016). The protocol was approved by the Institutional Animal Care and Use Committees of Emory University, the AtlantaVAMedical Center, and Brandeis University. Mice (6 to 10 per group) were inoculated with 1,000 purified CP oocysts (Iowa isolate, from cattle). Treatment by gavage began 4 h postinfection with either vehicle (5% dimethyl sulfoxide (DMSO) in canola oil), 50-100 mg/kg compound, or 2,000 mg/kg paromomycin. Compounds were given for 7 days, and mice were sacrificed on day 8 (peak infection). Parasite load was quantified by fluorescence-activated cell sorting (FACS) assays for the presence of the oocysts in the feces at days 0, 4, and 7. Fecal pellets from individual mice were routinely collected daily and homogenized in adjusted volumes of 2.5% potassium dichromate. Samples were processed individually. Aliquots (200 ul) of vortexed samples were processed over microscale sucrose gradients as previously described (Arrowood M J, Hurd M R, Mead J R. 1995. A new method for evaluating experimental cryptosporidial parasite loads using immunofluorescent flowcytometry. J. Parasitol. 81:404-409). The oocyst-containing fraction was collected, washed, and treated with monoclonal antibody (OW5O-FITC) for 20 min. Samples were adjusted to 600 ul, and a portion (100 ul) was assayed with a 102-s sampling interval using logical gating of forward/side scatter and OW5O-FITC fluorescence signal on a Becton, Dickinson FACScan flow cytometer. Flow cytometry data were evaluated by analysis of variance (KaleidaGraph (Synergy Software, Reading Pa.); Microsoft Excel (Microsoft Corporation, Redmond, Wash.)).
NZ-366 (50 mg/kg) and NZ-369 (100 mg/kg) were administered via gavage in a single daily dose to IL-12 knockout mice that were infected with 1,000 CP oocysts. Additional control groups included those treated with single daily doses of vehicle, and paromomycin (Prm) (2,000 mg/kg), by oral gavage.

hERG = hERG (Homo sapiens, UniProt Q12809); assay: hERG test (potential cardiotoxicity); format: biochemical; settings: human; read-out: hERG (Abbvie)
Chain of hERG (Q12809 whole entry): as above

[5] = 44 h, CP in HCT-8 cells, 44 h infection, 50% reduction of parasite growth vs control, NA: not active, read-out: MIC50
[6] = NZ-366 50 mg/kg, NZ-369 100 mg/kg, paromomycin 2,000 mg/kg

Structure (SMILES): CC(C)NC(=O)C(C)c1ccc(Oc2nc3ccc(Cl)cc3s2)cc1 (centres unmarked) [NZ-327, 2-{4-[(6-chloro-1,3-benzothiazol-2-yl)oxy]phenyl}-N-(propan-2-yl)propanamide]
- MIC50 [1, 5]: 7 to 22 nM (≈ 0.00262 to 0.00825 µg/mL)
- MIC50 ([1]; read-out: MIC50 (nM) (CP)): 7 to 22 nM (≈ 0.00262 to 0.00825 µg/mL)
- IC50 (in vitro; Saccharomyces cerevisiae): > 100 µM
- IC50 (in vitro; human): > 100 µM
- concentrations at which not toxic, S. cerevisiae cytotoxicity testing (S. cerevisiae): ≥ 100 µM
- concentrations at which not toxic, human fibroblast cytotoxicity testing (human fibroblast): ≥ 100 µM
- MCLint (mL/min/g liver), MLM [2]: MLM = 3.7 mL/min/g liver
- HCLint (mL/min/g liver), HLM [3]: HLM = 1.3 mL/min/g liver
- Kinetic Sol. (Kinetic solubility): 33 µM
- fraction unbound (Plasma protein binding): 0.016

Structure (SMILES): CC(C(=O)N1CCS(=O)(=O)CC1)c1ccc(Oc2nc3ccc(Cl)cc3s2)cc1 (centres unmarked) [NZ-553, 4-(2-{4-[(6-chloro-1,3-benzothiazol-2-yl)oxy]phenyl}propanoyl)-1λ^6,4-thiomorpholine-1,1-dione]
- MIC50 [1, 5]: 2 nM (≈ 0.000902 µg/mL)
- MIC50 ([1]; read-out: MIC50 (nM) (CP)): 2 nM (≈ 0.000902 µg/mL)
- IC50 (in vitro; Saccharomyces cerevisiae): > 100 µM
- IC50 (in vitro; human): 40 µM
- IC50 [4]: 11 µM
- MCLint (mL/min/g liver), MLM [2]: MLM = 1.28 mL/min/g liver
- HCLint (mL/min/g liver), HLM [3]: HLM = 0.87 mL/min/g liver
- Kinetic Sol. (Kinetic solubility): 100 µM
- fraction unbound (Plasma protein binding): 0.01

Structure (SMILES): CC(C(=O)NCCN(C)C)c1ccc(Oc2nc3ccc(Cl)cc3s2)cc1 (centres unmarked) [NZ-516, 2-{4-[(6-chloro-1,3-benzothiazol-2-yl)oxy]phenyl}-N-[2-(dimethylamino)ethyl]propanamide]
- MIC50 [1, 5]: 16 nM (≈ 0.00646 µg/mL)
- MIC50 ([1]; read-out: MIC50 (nM) (CP)): 16 nM (≈ 0.00646 µg/mL)
- IC50 (in vitro; Saccharomyces cerevisiae): > 100 µM
- IC50 (in vitro; human): 5.6 µM
- concentrations at which not toxic, S. cerevisiae cytotoxicity testing (S. cerevisiae): ≥ 100 µM
- concentrations at which not toxic, human fibroblast cytotoxicity testing (human fibroblast): ≥ 100 µM
- IC50 [4]: 2.7 µM
- MCLint (mL/min/g liver), MLM [2]: MLM = 4.1 mL/min/g liver
- HCLint (mL/min/g liver), HLM [3]: HLM = 0.54 mL/min/g liver
- Kinetic Sol. (Kinetic solubility): 100 µM
- Mouse Model (Mead) DPI7 (Cryptosporidium parvum): DPI7 = 94%
- effectiveness in the same type of test (IL-12 knockout mouse model) (Cryptosporidium parvum; mouse, in vivo): effective

Structure (SMILES): CC(C(=O)NCCO)c1ccc(Oc2nc3ccc(Cl)cc3s2)cc1 (centres unmarked) [NZ-370, 2-{4-[(6-chloro-1,3-benzothiazol-2-yl)oxy]phenyl}-N-(2-hydroxyethyl)propanamide]
- MIC50 [1, 5]: 50 to 60 nM (≈ 0.0188 to 0.0226 µg/mL)
- MIC50 ([1]; read-out: MIC50 (nM) (CP)): 50 to 60 nM (≈ 0.0188 to 0.0226 µg/mL)
- IC50 (in vitro; Saccharomyces cerevisiae): > 100 µM
- IC50 (in vitro; human): > 100 µM
- concentrations at which not toxic, S. cerevisiae cytotoxicity testing (S. cerevisiae): ≥ 100 µM
- concentrations at which not toxic, human fibroblast cytotoxicity testing (human fibroblast): ≥ 100 µM
- IC50 (hERG): 30 µM
- Kinetic Sol. (Kinetic solubility): 40 µM

Structure (SMILES): COCCNC(=O)C(C)c1ccc(Oc2nc3ccc(Cl)cc3s2)cc1 (centres unmarked) [NZ-541, 2-{4-[(6-chloro-1,3-benzothiazol-2-yl)oxy]phenyl]-N-(2-methoxyethyl)propanamide]
- MIC50 [1, 5]: 81 nM (≈ 0.0317 µg/mL)
- MIC50 ([1]; read-out: MIC50 (nM) (CP)): 81 nM (≈ 0.0317 µg/mL)
- IC50 (in vitro; Saccharomyces cerevisiae): > 100 µM
- IC50 (in vitro; human): > 100 µM
- IC50 [4]: 27 µM
- MCLint (mL/min/g liver), MLM [2]: MLM = 6.3 mL/min/g liver
- HCLint (mL/min/g liver), HLM [3]: HLM = 2.0 mL/min/g liver

Structure (SMILES): CC(C(=O)NC1COC1)c1ccc(Oc2nc3ccc(Cl)cc3s2)cc1 (centres unmarked) [NZ-543, 2-{4-[(6-chloro-1,3-benzothiazol-2-yl)oxy]phenyl}-N-(oxetan-3-yl)propanamide]
- MIC50 [1, 5]: 45 nM (≈ 0.0175 µg/mL)
- MIC50 ([1]; read-out: MIC50 (nM) (CP)): 45 nM (≈ 0.0175 µg/mL)
- IC50 (in vitro; Saccharomyces cerevisiae): > 100 µM
- IC50 (in vitro; human): > 100 µM
- IC50 [4]: 24 µM
- MCLint (mL/min/g liver), MLM [2]: MLM = 2 mL/min/g liver
- HCLint (mL/min/g liver), HLM [3]: HLM = 1.2 mL/min/g liver

Structure (SMILES): CC(C(=O)N1CCN(C)CC1)c1ccc(Oc2nc3ccc(Cl)cc3s2)cc1 (centres unmarked) [NZ-366, 2-{4-[(6-chloro-1,3-benzothiazol-2-yl)oxy]phenyl}-1-(4-methylpiperazin-1-yl)propan-1-one]
- MIC50 [1, 5]: 50 nM (≈ 0.0208 µg/mL)
- MIC50 ([1]; read-out: MIC50 (nM) (CP)): 50 nM (≈ 0.0208 µg/mL)
- IC50 (in vitro; Saccharomyces cerevisiae): 80 µM
- IC50 (in vitro; human): 48 µM
- concentrations at which not toxic, S. cerevisiae cytotoxicity testing (S. cerevisiae): 25 to 50 µM
- concentrations at which not toxic, human fibroblast cytotoxicity testing (human fibroblast): 25 to 50 µM
- IC50 [4]: 2.4 µM
- MCLint (mL/min/g liver), MLM [2]: MLM = 41 mL/min/g liver
- HCLint (mL/min/g liver), HLM [3]: HLM = 7.9 mL/min/g liver
- Kinetic Sol. (Kinetic solubility): 62 µM
- fraction unbound (Plasma protein binding): 0.019
- Mouse Model (Mead) DPI7 (Cryptosporidium parvum): DPI7 = 59%
- overt toxicity in the treated infected mice (Cryptosporidium parvum; NZ-366 50 mg/kg, NZ-369 100 mg/kg, 7 days): no overt toxicity
- anticryptosporidial activity, fecal oocysts day 7 post infection (Cryptosporidium parvum; NZ-366 50 mg/kg, NZ-369 100 mg/kg, gavage, single daily dose, FIG. 1): have anticryptosporidial activity
- effectiveness compared with paromomycin after a single dose (Cryptosporidium parvum; [6]): more effective than paromomycin
- effectiveness compared with paromomycin over the course of the study (Cryptosporidium parvum; [6]): equally as effective as paromomycin

Structure (SMILES): CC(C(=O)NC1CCOC1)c1ccc(Oc2nc3ccc(Cl)cc3s2)cc1 (centres unmarked) [NZ-544, 2-{4-[(6-chloro-1,3-benzothiazol-2-yl)oxy]phenyl}-N-(oxolan-3-yl)propanamide]
- MIC50 [1, 5]: 72 nM (≈ 0.029 µg/mL)
- MIC50 ([1]; read-out: MIC50 (nM) (CP)): 72 nM (≈ 0.029 µg/mL)
- IC50 (in vitro; Saccharomyces cerevisiae): > 100 µM
- IC50 (in vitro; human): > 100 µM
- IC50 [4]: 11 µM
- MCLint (mL/min/g liver), MLM [2]: MLM = 3.3 mL/min/g liver
- HCLint (mL/min/g liver), HLM [3]: HLM = 2.6 mL/min/g liver

Structure (SMILES): CC(C(=O)N1CCOCC1)c1ccc(Oc2nc3ccc(Cl)cc3s2)cc1 (centres unmarked) [NZ-365, 2-{4-[(6-chloro-1,3-benzothiazol-2-yl)oxy]phenyl}-1-(morpholin-4-yl)propan-1-one]
- MIC50 [1, 5]: 25 nM (≈ 0.0101 µg/mL)
- MIC50 ([1]; read-out: MIC50 (nM) (CP)): 25 nM (≈ 0.0101 µg/mL)
- IC50 (in vitro; Saccharomyces cerevisiae): > 100 µM
- IC50 (in vitro; human): > 100 µM
- concentrations at which not toxic, S. cerevisiae cytotoxicity testing (S. cerevisiae): 50 to 100 µM
- concentrations at which not toxic, human fibroblast cytotoxicity testing (human fibroblast): ≥ 100 µM
- IC50 [4]: 12 µM
- MCLint (mL/min/g liver), MLM [2]: MLM = 10 mL/min/g liver
- HCLint (mL/min/g liver), HLM [3]: HLM = 4.8 mL/min/g liver
- Kinetic Sol. (Kinetic solubility): 28 µM

Source: patent publication US11083717B2, “Compositions and methods for drug sensitization of parasites” (The Texas A&M University System, priority 2015, dated 2021)
